Consider five compounds from patent publication US9249087B2, “HDAC inhibitors and therapeutic methods using the same” (THE BOARD OF TRUSTEES OF THE UNIVERSITY OF ILLINOIS, priority 2011, dated 2016).

Like-named read-outs stand apart in the source and are kept apart here.

One data set has as its target HDAC9 (Homo sapiens (Human), UniProt Q9UKV0). The data set can be described thus: HDAC9 inhibition assay (Acetyl-Lys(trifluoroacetyl)-AMC substrate). It is filed as biochemical. Conditions: average of two experiments; read-out: HDAC Isoform IC50 (μM) 9.
A further data set deals with Human HDAC1 (Homo sapiens (Human), UniProt Q13547). The data set is described as follows: HDAC1 fluorogenic peptide deacetylation inhibition assay. It is filed as biochemical. The conditions noted are these: average of two experiments; read-out: HDAC Isoform IC50 (μM) 1.
Chain of Human HDAC1 (Q13547 whole entry, canonical isoform): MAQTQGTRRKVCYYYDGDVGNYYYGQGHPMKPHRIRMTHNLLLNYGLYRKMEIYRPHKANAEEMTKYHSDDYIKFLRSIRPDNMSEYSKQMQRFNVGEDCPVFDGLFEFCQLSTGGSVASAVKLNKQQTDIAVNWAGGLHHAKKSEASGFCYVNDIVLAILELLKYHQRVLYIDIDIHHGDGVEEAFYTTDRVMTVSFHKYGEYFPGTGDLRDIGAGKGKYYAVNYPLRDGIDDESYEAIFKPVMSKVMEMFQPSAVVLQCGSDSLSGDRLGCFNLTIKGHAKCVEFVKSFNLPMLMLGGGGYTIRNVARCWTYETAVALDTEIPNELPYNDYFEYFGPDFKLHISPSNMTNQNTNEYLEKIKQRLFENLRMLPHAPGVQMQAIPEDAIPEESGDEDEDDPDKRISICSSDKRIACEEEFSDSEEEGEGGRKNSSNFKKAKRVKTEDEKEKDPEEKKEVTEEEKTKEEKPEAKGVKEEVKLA
The target of the next data set is HDAC2 (Homo sapiens (Human), UniProt Q92769). The data set is described as follows: HDAC2 fluorogenic peptide deacetylation inhibition assay. It is filed as biochemical. Conditions: average of two experiments; read-out: HDAC Isoform IC50 (μM) 2.
Chain of HDAC2 (Q92769 whole entry, canonical isoform): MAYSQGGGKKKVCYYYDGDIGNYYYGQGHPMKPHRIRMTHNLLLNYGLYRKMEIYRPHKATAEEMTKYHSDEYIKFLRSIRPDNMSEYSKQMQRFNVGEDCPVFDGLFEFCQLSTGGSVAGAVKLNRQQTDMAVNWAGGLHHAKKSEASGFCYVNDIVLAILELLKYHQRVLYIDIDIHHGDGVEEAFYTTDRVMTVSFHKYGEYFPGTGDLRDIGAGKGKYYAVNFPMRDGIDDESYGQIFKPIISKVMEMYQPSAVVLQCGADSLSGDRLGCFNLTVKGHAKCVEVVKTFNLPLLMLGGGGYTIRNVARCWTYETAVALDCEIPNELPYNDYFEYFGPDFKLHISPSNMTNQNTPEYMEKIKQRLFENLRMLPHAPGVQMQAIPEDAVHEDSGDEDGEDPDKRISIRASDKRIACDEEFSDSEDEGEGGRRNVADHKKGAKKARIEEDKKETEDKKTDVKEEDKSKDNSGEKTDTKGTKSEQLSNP
The next data set has as its target HDAC8 (Homo sapiens (Human), UniProt Q9BY41). The data set is described as follows: HDAC8 inhibition assay (fluorogenic diacyl peptide). It is filed as biochemical. The conditions noted are these: average of two experiments; read-out: HDAC Isoform IC50 (μM) 8.
For a further data set, the target named is Human HDAC6 (Homo sapiens (Human), UniProt Q9UBN7). The data set can be described thus: HDAC6 fluorogenic peptide deacetylation inhibition assay. It is filed as biochemical.
Chain of Human HDAC6 (Q9UBN7 whole entry): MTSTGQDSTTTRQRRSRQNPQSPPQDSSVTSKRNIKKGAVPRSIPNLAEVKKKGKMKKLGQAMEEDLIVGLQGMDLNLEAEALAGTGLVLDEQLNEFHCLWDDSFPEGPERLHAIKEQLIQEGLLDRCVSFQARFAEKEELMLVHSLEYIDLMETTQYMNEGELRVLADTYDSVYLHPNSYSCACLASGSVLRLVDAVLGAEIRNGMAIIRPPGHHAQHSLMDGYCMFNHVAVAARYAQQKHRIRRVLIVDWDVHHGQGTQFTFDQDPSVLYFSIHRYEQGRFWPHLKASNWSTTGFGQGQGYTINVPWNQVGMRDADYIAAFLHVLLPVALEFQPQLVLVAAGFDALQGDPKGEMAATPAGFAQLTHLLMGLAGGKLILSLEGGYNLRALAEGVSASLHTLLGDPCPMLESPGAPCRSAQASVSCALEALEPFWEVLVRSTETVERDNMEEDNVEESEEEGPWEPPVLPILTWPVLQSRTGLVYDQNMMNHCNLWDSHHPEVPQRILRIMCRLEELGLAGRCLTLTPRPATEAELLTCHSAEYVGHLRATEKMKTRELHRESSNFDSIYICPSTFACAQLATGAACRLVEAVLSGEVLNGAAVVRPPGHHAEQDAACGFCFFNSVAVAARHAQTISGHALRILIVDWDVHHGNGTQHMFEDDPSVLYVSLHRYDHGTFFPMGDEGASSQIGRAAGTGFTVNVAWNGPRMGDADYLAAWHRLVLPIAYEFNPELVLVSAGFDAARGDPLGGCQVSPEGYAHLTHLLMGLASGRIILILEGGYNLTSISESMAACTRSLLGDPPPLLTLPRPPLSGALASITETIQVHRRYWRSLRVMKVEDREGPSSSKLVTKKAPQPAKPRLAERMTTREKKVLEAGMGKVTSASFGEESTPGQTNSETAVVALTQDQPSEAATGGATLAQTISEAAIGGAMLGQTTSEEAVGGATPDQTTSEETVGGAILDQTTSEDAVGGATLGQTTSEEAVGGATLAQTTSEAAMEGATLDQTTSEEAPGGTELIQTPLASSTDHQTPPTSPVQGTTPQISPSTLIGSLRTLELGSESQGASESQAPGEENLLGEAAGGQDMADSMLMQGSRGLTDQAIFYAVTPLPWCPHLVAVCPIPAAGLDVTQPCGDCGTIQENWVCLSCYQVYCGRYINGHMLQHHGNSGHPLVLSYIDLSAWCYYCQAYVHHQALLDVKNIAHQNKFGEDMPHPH
In data set [1] the test system is traumatic brain injury in rats. The conditions noted are these: following traumatic brain injury in rats; cited from earlier work.
Another data set concerns primary cortical neurons. The data set is described as follows: HCA oxidative stress neuroprotection assay (MTT). It is filed as cell-based. From the text:
It has been shown that HDAC6 inhibition protects against neuronal degeneration and stimulates neurite outgrowth in dorsal root ganglion neurons, therefore indicating methods of treating CNS diseases. Accordingly, present HDACI compounds were examined in a model of oxidative stress induced by homocysteic acid (HCA). This model leads to depletion of glutathione, the major intracellular antioxidant. HDAC6 inhibition rescues neuronal death in this model, possibly by causing hyperacetylation of peroxiredoxins. […] (A. P. Kozikowski et al., J. Med. Chem. 2007, 50, 3054-61.)
FIGS. 1 and 2 contain neuroprotection bar graphs of the HCA oxidative stress test assay. Neurons were treated with TSA (FIG. 1) or a present HDACI compound (FIG. 2), alone or with the addition of HCA (homocysteic acid).
The data summarized in FIGS. 1 and 2 was obtained according to the following neuroprotective assay. Primary cortical neuron cultures were obtained from the cerebral cortex of fetal Sprague-Dawley rats (embryonic day 17). All experiments were initiated 24 hours after plating. Under these conditions, the cells are not susceptible to glutamate-mediated excitotoxicity. […] Viability was assessed after 24 hours by the MTT assay (3-(4,5-dimethylthiazol-2-yl)-2,5-diphenyltetrazolium bromide) method.

A further data set concerns the target HDAC7 (Homo sapiens (Human), UniProt Q8WUI4). The conditions noted are these: read-out: HDAC Isoform IC50 (μM) 7.
A further data set deals with mice with colitis. The data set can be described thus: colitis in mice. The conditions noted are these: treatment begun once colitis had developed. Type of data set: in vivo. From the text:
Studies of autoimmunity also are undertaken. In this case, interruption of existing disease is especially important and HDAC6 targeting can be efficacious without any requirement for additional therapy (in contrast to a need for brief low-dose RPM in the very aggressive, fully MHC-mismatched transplant models). […] These studies are extended by assessing whether deletion of HDAC6 in Tregs (Foxp3/Cre) vs. T cells (CD4=Cre) vs. DC (CD11c-Cre) differentially affect the development and severity of colitis. Similarly, control of colitis is assessed by inducing HDAC6 deletion at varying intervals after the onset of colitis with tamoxifen-regulated Cre.

For the next data set, the target named is HDAC5 (Homo sapiens (Human), UniProt Q9UQL6). The data set can be described thus: HDAC5 inhibition assay (Acetyl-Lys(trifluoroacetyl)-AMC substrate). It is filed as biochemical. Conditions: average of two experiments; read-out: HDAC Isoform IC50 (μM) 5.
Chain of HDAC5 (Q9UQL6 whole entry, canonical isoform): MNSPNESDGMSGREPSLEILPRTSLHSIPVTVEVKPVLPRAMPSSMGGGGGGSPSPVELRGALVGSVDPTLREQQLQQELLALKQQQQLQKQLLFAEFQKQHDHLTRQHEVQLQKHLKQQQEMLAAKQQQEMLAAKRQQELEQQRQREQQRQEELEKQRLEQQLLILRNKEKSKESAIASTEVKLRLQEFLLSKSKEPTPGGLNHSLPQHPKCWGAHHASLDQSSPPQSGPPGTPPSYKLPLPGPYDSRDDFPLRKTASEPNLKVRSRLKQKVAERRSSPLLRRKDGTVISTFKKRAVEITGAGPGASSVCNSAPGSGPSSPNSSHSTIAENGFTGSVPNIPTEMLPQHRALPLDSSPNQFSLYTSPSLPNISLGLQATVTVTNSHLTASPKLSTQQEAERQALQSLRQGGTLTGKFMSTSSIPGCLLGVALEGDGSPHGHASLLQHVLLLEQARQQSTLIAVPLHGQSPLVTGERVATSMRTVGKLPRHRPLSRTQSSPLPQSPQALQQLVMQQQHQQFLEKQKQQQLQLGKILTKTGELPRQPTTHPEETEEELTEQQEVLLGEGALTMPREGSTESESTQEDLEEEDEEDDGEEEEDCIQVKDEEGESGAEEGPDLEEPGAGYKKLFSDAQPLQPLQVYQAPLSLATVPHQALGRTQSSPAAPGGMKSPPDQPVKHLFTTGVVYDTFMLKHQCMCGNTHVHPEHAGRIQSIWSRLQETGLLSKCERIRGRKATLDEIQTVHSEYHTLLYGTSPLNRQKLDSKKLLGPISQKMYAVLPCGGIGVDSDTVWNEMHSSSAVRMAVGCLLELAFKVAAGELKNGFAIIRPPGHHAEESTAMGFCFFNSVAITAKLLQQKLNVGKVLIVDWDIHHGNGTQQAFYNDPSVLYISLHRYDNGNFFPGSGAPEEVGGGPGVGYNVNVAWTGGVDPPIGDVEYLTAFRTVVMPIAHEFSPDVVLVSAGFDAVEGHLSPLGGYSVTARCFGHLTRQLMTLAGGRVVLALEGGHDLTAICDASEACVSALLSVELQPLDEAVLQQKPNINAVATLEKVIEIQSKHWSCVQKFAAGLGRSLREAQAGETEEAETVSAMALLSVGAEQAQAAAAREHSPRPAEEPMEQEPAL
Where [2] appears, read: average of two experiments, read-out: HDAC Isoform IC50 (μM) 6.

Chain of HDAC9 (Q9UKV0 whole entry, canonical isoform): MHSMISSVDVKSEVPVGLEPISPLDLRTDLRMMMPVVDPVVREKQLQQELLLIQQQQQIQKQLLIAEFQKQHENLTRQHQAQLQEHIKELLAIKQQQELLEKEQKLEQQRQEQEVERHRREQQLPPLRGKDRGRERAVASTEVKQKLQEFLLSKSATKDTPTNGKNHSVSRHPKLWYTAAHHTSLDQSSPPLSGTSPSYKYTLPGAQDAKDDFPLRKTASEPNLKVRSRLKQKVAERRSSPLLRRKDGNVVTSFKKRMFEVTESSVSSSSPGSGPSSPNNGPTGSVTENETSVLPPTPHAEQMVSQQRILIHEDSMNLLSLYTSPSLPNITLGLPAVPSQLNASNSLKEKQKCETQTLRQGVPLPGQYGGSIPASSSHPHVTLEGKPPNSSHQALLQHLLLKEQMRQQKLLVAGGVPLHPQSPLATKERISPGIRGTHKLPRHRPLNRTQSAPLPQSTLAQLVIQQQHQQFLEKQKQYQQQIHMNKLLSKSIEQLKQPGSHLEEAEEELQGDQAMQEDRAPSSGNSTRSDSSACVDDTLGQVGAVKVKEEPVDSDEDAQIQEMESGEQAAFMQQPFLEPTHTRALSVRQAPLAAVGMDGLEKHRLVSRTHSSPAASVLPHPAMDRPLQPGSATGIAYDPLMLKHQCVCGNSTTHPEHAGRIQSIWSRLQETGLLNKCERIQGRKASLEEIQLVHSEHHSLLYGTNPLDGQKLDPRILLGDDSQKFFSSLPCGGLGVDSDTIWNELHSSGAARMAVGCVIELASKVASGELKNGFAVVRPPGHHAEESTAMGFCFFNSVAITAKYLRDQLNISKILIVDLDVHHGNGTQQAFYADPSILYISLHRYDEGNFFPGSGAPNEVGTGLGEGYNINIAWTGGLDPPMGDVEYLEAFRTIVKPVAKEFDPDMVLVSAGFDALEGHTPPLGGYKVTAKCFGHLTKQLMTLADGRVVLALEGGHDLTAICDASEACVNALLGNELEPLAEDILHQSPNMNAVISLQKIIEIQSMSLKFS
Chain of HDAC8 (Q9BY41 whole entry, canonical isoform): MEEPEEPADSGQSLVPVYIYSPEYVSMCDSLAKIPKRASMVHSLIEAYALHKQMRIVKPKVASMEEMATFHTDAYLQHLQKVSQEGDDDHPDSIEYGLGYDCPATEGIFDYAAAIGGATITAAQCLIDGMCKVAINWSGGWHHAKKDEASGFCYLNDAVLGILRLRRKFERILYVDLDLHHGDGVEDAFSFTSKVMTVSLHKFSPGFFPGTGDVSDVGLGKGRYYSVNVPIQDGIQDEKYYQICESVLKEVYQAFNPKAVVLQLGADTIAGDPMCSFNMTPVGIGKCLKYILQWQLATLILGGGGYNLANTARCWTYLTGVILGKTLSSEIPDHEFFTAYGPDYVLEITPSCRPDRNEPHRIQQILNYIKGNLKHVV

What is called IC50 is the midpoint of a concentration-inhibition curve. Consider `Cc1cc2ccccc2n1Cc1ccc(C(=O)NO)cc1` [Compound 4, N-Hydroxy-4-((2-methyl-1H-indol-1-yl)methyl)benzamide], for which the IC50 on HDAC9 was found to be 18.3 µM; on Human HDAC1, 5.34 µM; at HDAC2 it was 8.14 µM; at HDAC8 it was 0.397 µM; at Human HDAC6 (setting [2]) it was 0.00251 µM; on Human HDAC6 (read-out: HDAC6 IC50), 0.0025 µM. Besides, the “selectivity against HDAC1” value on Human HDAC6 (HDAC6 vs HDAC1, running text) was 2125 fold.
Regarding `Cc1cn(Cc2ccc(C(=O)NO)cc2)c2ccccc12` [Compound 6, N-Hydroxy-4-((3-methyl-1H-indol-1-yl)methyl)benzamide], the IC50 at HDAC9 turned out to be 14.5 µM; at Human HDAC1, 6.79 µM; on HDAC2, 11.9 µM; on HDAC8 it was 0.911 µM; at Human HDAC6 (setting [2]), 0.00511 µM.
Turning to `CN(C)c1ccc(C(=O)NCCCCCNC(=O)CS)cc1` [DMA-PB, 4-dimethylamino-N-[5-(2-mercaptoacetylamino)pentyl]benzamide], in [1], the “histone H3 acetylation” value was “increase histone H3 acetylation” and the microglia inflammatory response entry is recorded as “reduce microglia inflammatory response”.
As for `CC(/C=C/C(=O)NO)=C\[C@@H](C)C(=O)c1ccc(N(C)C)cc1` [TSA, Trichostatin A], the “neuroprotection in HCA-induced neurodegeneration assay” value in the data set on primary cortical neurons (0.5 μM, HCA 5 mM, viability by MTT after 24 hours) is “moderately neuroprotective”. Besides, the “neurotoxicity to primary cortical neurons” value with primary cortical neurons (higher concentrations than 0.5 μM) is reported as “dose-dependant neurotoxicity”.
With `O=C(CCCCCCC(=O)Nc1ccc([C@H]2O[C@@H](CSc3nc(-c4ccccc4)c(-c4ccccc4)o3)C[C@@H](c3ccc(CO)cc3)O2)cc1)NO` [Tubacin], the IC50 at HDAC2 was determined as 6.27 µM; at HDAC7 it was 9.7 µM; on HDAC5, 3.35 µM. Moreover, the “rescue of mice with established colitis” value in the data set with mice with colitis is given as “able to rescue mice”.
